Laboratory results as given in US20250066446A1, “FUSION PROTEINS FOR THE TREATMENT OF CARDIOMETABOLIC DISEASES” (Shattuck Labs, Inc., priority 2022, published 2025).
Entries after “also recorded” stand apart in the source; their conditions may differ. Values belong to the molecule of their own block, whether it stands above or below them. Where no end group is shown, it is not given here.

Key:
[1] = target: GlP receptor (GlPR) of rat INS-1 insulinoma cells (UniProt P43219)
[2] = target: glucose-dependent insulinotropic polypeptide receptor (GlPR) on GeneBLAzer GlPR-CRE-bla HEK293T cells (UniProt P48546); experiment: cell-based or functional assay
GlPR = target: T1, GlPR (Rattus norvegicus, UniProt P43219); experiment: pGloSensor-22F cAMP biosensor assay in rat INS-1 cells (GlPR agonism and antagonism); format: cell-based; set-up: dose or concentration left out as unconfirmed; settings: increasing doses mixed with GlP(Ag)
T1 construct: endogenous in cells; host or cells: rat INS-1 insulinoma cells carrying a cAMP reporter (a cAMP-luciferase reporter in A2, the pGloSensor-22F biosensor in A4)
T1 sequence (P43219 19-455): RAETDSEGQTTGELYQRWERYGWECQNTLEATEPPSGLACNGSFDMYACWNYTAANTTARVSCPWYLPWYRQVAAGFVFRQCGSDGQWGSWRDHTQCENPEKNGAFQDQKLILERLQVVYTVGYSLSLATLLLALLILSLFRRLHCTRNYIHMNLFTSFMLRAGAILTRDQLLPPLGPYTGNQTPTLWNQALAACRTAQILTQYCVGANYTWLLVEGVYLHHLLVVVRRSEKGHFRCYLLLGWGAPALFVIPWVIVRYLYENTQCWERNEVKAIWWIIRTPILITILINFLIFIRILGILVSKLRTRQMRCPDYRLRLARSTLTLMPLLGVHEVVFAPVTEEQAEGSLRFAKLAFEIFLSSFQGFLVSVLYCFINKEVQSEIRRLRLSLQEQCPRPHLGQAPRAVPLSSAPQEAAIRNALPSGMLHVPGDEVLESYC
Protocol: Briefly, rat INS-1 cells having pGloSensor-22F (Promega) were constructed and used to evaluate GlPR agonism and antagonism. […] The conformational change leads to the activation of the luciferase enzyme, thereby allowing detection of activation of GlPR, which produces cAMP upon activation.
Immediately after the addition, the luminescence of the cells was measured, normalized using the basal luminescence and plotted.

[3] = human NASH patients; cited from earlier work
[4] = Longer-term obesity model in HFD-fed mice; settings: for blood glucose levels: Days 0, 1, 10 and 15; for blood glucose levels / average daily food intake: compared to the untreated mice; for plasma insulin levels on Day 15: FIG. 8C right panel; for liver weight / subcutaneous white adipose tissue (sWAT) weight: day 19 terminal necropsy, vs PBS control; for change in body weight: tail vein dosing Day 0, 4, 7, 10, 14, 18, weighed every 2 days; for collagen staining (fibrosis), picrosirius red liver sections / hepatocellular ballooning and steatosis, H&E liver histology: vs vehicle-treated mice
Protocol: Mice (Male C57BL/6) were of approximately 13 weeks of age were housed 4 mice per cage. Following 2 weeks of acclimatation, mice were introduced to 60% kcal HFD (Research Diets D12492). Cages were changed once, then changed once a week. Weekly body weights and non-fasted blood glucose were collected.
Mice were injected by tail vein with vehicle or the drugs on Day 0, Day 4, Day 7, Day 10, Day 14, and Day 18. Body weights were measured every 2 days. Change in body weight was calculated and plotted.
Cumulative food intake was measured between day 0 and 3, between day 4 and 7, between day 7 and day 11, and between day 11 and day 14, and represented as average daily food intake. For food consumption, remaining food was weighed on days 3, 8, and 15, and subtracted from the starting weight. This value was then normalized to the number of mice in the cage, and the number of days the mice had access to the food prior to weighing.
Blood glucose levels were measured on Days 0, 1, 10 and 15 and plotted.
On day 19 during terminal necropsy, liver and subcutaneous white adipose tissue were recovered weighed from treated animals.
To further analyze the changes in liver, histopathological analysis was conducted. Briefly, the liver tissue was stained with hematoxylin and eosin (H&E) and evaluated using standard techniques.

[5] = target: T2, glucose-dependent insulinotropic polypeptide receptor (GlPR) (Homo sapiens, UniProt P48546); experiment: GeneBLAzer GlPR-CRE-bla HEK293T cell-based reporter assay; settings: 5 hours incubation; for 460/530 ratio, indicative of the activation of GlPR: increasing amounts
T2 construct: host or cells: GeneBLAzer GIPR-CRE-bla HEK293T cells
T2 sequence (P48546 22-466): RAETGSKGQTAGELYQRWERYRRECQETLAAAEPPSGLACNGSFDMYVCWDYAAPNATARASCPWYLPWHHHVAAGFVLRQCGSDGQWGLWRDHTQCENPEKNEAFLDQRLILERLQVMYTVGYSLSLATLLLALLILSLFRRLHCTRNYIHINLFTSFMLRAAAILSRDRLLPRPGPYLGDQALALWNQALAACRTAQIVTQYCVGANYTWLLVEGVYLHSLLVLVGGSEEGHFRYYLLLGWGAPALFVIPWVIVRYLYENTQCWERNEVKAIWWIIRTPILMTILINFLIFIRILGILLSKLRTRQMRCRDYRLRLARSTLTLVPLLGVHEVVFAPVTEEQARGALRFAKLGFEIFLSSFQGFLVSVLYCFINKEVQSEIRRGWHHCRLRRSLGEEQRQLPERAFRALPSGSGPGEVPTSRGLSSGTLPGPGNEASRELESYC
Protocol: This assay is diagrammatically represented in FIG. 3A. […] In the presence of the β-lactamase LiveBLAzer™ substrate, cells expressing β-lactamase fluoresce blue (460 nm), while those not expressing β-lactamase fluoresce green (530 nm); higher 460/530 ratio indicates the activation of GlPR.
Briefly, GeneBLAzer® GlPR-CRE-bla HEK293T cells were added to wells of black-wall assay plates. […] To each well, LiverBLAzer-FRET B/G substrate mixture was added. The plate was covered with plate sealer and incubated at room temperature for 2 hours in the dark. Fluorescence emission was measured on SpectraMax plate reader at 460 nm and 530 nm with excitation set to 409 nm. After subtraction of background, average value at 460 nm (blue color) was divided by average value at 530 nm (green color) to obtain the 460/530 ratio.

GlP receptor (GlPR) = target: T3, GlP receptor (GlPR) (Rattus norvegicus, UniProt P43219); experiment: cAMP-Glo assay in rat insulinoma INS-1 cells harboring a cAMP-luciferase reporter gene; format: cell-based; settings: 1 hour glucose, then 2 hour incubation with increasing amounts
T3 construct: endogenous in cells; host or cells: rat INS-1 insulinoma cells carrying a cAMP reporter (a cAMP-luciferase reporter in A2, the pGloSensor-22F biosensor in A4)
T3 sequence (P43219 19-455): T1 sequence (P43219 19-455)
From the text: Rat insulinoma INS-1 cells harboring a cAMP-luciferase reporter gene were used to study the activation of GlPR. Without wishing to be bound by theory, the activation of GlPR leads to temporary depletion of ATP because of consumption of ATP in cyclization reaction to produce cAMP as well as by phosphorylation by protein kinase A of its substrate. Without wishing to be bound by theory, the temporary depletion of ATP leads to an inhibition of luciferase activity, which needs ATP as a substrate.

[6] = Glucose tolerance test (GTT) model in HFD-fed mice; format: in vivo, mice (Male C57BL/6); settings: i.v. treatment, 18 hours fast, 2 g/kg glucose, 15 min to 2 hours
Protocol: Cages were changed once, then changed once a week.
The mice administered the above treatment by i.v. injections. The mice were then fasted for 18 hours and administered a dose of 2 g/kg glucose by i.v. injections. Blood samples were drawn by tail clip bleeding at 15, 30 and 60 minutes post dosing and cardiac bleeding was used at 2 hours after glucose injection as end-point.

[7] = system: rat insulinoma INS-1 cells; experiment: in vitro glucose-stimulated insulin secretion (GSIS) in INS-1 cells; format: cell-based; settings: 1 hour glucose, then 2 hour incubation; ELISA
From the text: X is a known inducer of GSIS.

EC50 (read off the curve): fall of cAMP-Glo luminescence, rat INS-1 cells [1]: 0.007 pM | EC50 of GlPR activation (460/530 ratio, GeneBLAzer GlPR-CRE-bla HEK293T beta-lactamase reporter) [2]: 11.8 pM
Molecule: GlP(Ag)-Fc fusion protein (from UniProt P09681 52-93)

Molecule: GlP(AntPro3): GlP Antagonist (amino acids 1-42, having a E3P substitution); SEQ ID NO: 97 (YAPGTFISDYSIAMDKIHQQDFVNWLLAQKGKKNDWKHNITQ)
inhibition of GlP(Ag)-induced activation of the cAMP-luciferase reporter gene (GlPR antagonism) (GlPR): more potent inhibition of GlP agonist signaling than the others tested; also recorded: maximal level of a dose-dependent inhibition of GlP(Ag)-induced activation

Molecule: GlP(AntPro3NH2): GlP antagonist peptide derivative of GlP(AntPro3), NH2 form (YAPGTFISDYSIAMDKIHQQDFVNWLLAQKGKKNDWKHNITQ-NH2)
inhibition of GlP(Ag)-induced activation of the cAMP-luciferase reporter gene (GlPR antagonism) (GlPR): more potent inhibition of GlP agonist signaling than the others tested; also recorded: maximal level of a dose-dependent inhibition of GlP(Ag)-induced activation

Molecule: Pegbelfermin [Pegbelfermin (BMS-986036)]
liver fat content [3]: reduce liver fat content

Molecule: dulaglutide [reference compound]
blood glucose levels [4]: decrease in blood glucose | plasma insulin levels on Day 15 [4]: significant decrease in the levels of insulin | plasma insulin levels on Day 1 ([4]; between 15 and 120 minutes after treatment): rapid decrease in insulin levels | average daily food intake [4]: decrease in food intake | liver weight [4]: livers of control mice that received only PBS were much heavier | subcutaneous white adipose tissue (sWAT) weight [4]: decreased | change in body weight [4]: progressive weight loss | tolerability, clinical observations ([4]; tail vein dosing Day 0 to Day 18): well tolerated and no overt toxicities were noted | collagen staining (fibrosis), picrosirius red liver sections [4]: decrease in collagen staining | hepatocellular ballooning and steatosis, H&E liver histology [4]: decrease in hepatocellular ballooning and steatosis

EC50 (read off the curve): fall of cAMP-Glo luminescence, rat INS-1 cells [1]: 0.003 pM
Molecule: tirzepatide (peptide)

Molecule: tirzepatide [reference compound]
460/530 ratio, indicative of the activation of GlPR [5]: dose-dependent and saturable increase in 460/530 ratio | luciferase activity (cAMP-Glo), activation of GlPR (GlP receptor (GlPR)): dose-dependent and saturable inhibition of luciferase with similar potency | serum insulin following glucose administration [6]: rapid induction of insulin | serum glucose following glucose administration ([6]; vs PBS control): much smaller increase in serum glucose | blood glucose levels [4]: decrease in blood glucose | plasma insulin levels on Day 15 [4]: significant decrease in the levels of insulin | average daily food intake [4]: decrease in food intake | hepatocellular ballooning and steatosis, H&E under higher magnifications ([4]; compared to untreated animals): significant decrease in hepatocellular ballooning and steatosis | liver weight [4]: livers of control mice that received only PBS were much heavier | subcutaneous white adipose tissue (sWAT) weight [4]: decreased | change in body weight [4]: progressive weight loss | collagen staining (fibrosis), picrosirius red liver sections [4]: decrease in collagen staining | hepatocellular ballooning and steatosis, H&E liver histology [4]: decrease in hepatocellular ballooning and steatosis

EC50 ([5]; 460/530 ratio, purified proteins, read-out: EC50 of GlPR activation): 13.1 pM
B1: GlP(Ag)-Fc-FGF19: GlP fused to FGF19 via a hinge-CH2-CH3 Fc domain derived from IgG1; SEQ ID NO: 88 (protein)
chain: YAEGTFISDYSIAMDKIHQQDFVNWLLAQKGKKNDWKHNITQPCPAPEAAGGPSVFLFPPKPKDTLMISRTPEVTCVVVDVSHEDPEVKFNWYVDGVEVHNAKTKPREEQYNSTYRVVSVLTVLHQDWLNGKEYKCKVSNKALPAPIEKTISKAKGQPREPQVYTLPPSRDELTKNQVSLTCLVKGFYPSDIAVEWESNGQPENNYKTTPPVLDSDGSFFLYSKLTVDKSRWQQGNVFSCSVMHEALHNHYTQKSLSLSPGKIEGRMDRDSSPLVHYGWGDPIRLRHLYTSGPHGLSSCFLRIRADGVVDCARGQSAHSLLEIKAVALRTVAIKGVHSVRYLCMGADGKMQGLLQYSEEDCAFEEEIRPDGYNVYRSEKHRLPVSLSSAKQRQLYKNRGFLPLSHFLPMLPMVPEEPEDLRGHLESDMFSSPLETDSMDPFGLVTGLEAVRSPSFEK
460/530 ratio, indicative of the activation of GlPR [5]: dose-dependent and saturable increase in 460/530 ratio | luciferase activity (cAMP-Glo), activation of GlPR (GlP receptor (GlPR)): dose-dependent and saturable inhibition of luciferase with similar potency | insulin in the culture supernatant (GSIS) [7]: stimulated insulin production to a similar, if not greater magnitude than dulaglutide or tirzepatide
